Test system: HLA-A*11:01-restricted antigen-specific CD8+ T cells in patient's PBMC
Experiment: Highly multiplexed combinatorial pMHC tetramer staining with mass cytometry (epitope mapping, frequency of antigen-specific CD8+ T cells)
[1] = Inactive Carrier (InA) CHB patients, patients with detected tetramer+ CD8+ T cells (frequency > 0.002%) / patients in the group, per epitope cluster
[2] = patients with detected epitope-specific CD8+ T cells / patients tested, Inactive Carrier (InA) group, Freq > 0.002%
[3] = patients with detected epitope-specific CD8+ T cells / patients tested, Immune Tolerant (IT) group, Freq > 0.002%
[4] = patients with detected epitope-specific CD8+ T cells / patients tested, acute resolved (R) group, Freq > 0.002%
[5] = patients with detected epitope-specific CD8+ T cells / patients tested, Immune Active (IA) group, Freq > 0.002%
[6] = Immune Active (IA) patients, donors with tetramer+ CD8+ T cell frequency > 0.002% / donors tested
[7] = Immune Tolerant (IT) patients, donors with tetramer+ CD8+ T cell frequency > 0.002% / donors tested
[8] = Inactive Carrier (InA) patients, donors with tetramer+ CD8+ T cell frequency > 0.002% / donors tested
[9] = acute resolved (R) patients, donors with tetramer+ CD8+ T cell frequency > 0.002% / donors tested
[10] = Immune Active (IA) CHB patients, patients with detected tetramer+ CD8+ T cells (frequency > 0.002%) / patients in the group, per epitope cluster
[11] = Immune Tolerant (IT) CHB patients, patients with detected tetramer+ CD8+ T cells (frequency > 0.002%) / patients in the group, per epitope cluster
[12] = Acute resolved (R) patients, patients with detected tetramer+ CD8+ T cells (frequency > 0.002%) / patients in the group, per epitope cluster

## AGFFLLTK
[1]
  Hits (Freq > 0.002%) InA: 1/13

## AMGDAGGYK
[2]
  Hits (Freq > 0.002%) InA: 1/13

## ASCMGLIYNR
[3]
  Hits (Freq > 0.002%) IT: 1/8
[2]
  Hits (Freq > 0.002%) InA: 1/13
[4]
  Hits (Freq > 0.002%) R: 1/12

## ATVLMGLGK
[5]
  Hits (Freq > 0.002%) IA: 1/12
[3]
  Hits (Freq > 0.002%) IT: 1/8
[2]
  Hits (Freq > 0.002%) InA: 1/13

## ATVQGQNLK
[5]
  Hits (Freq > 0.002%) IA: 2/12
[3]
  Hits (Freq > 0.002%) IT: 3/8
[2]
  Hits (Freq > 0.002%) InA: 9/13
[4]
  Hits (Freq > 0.002%) R: 4/12

## AVVRRRCRSPR
[6]
  Hits (Freq > 0.002%) IA: 6/12
[7]
  Hits (Freq > 0.002%) IT: 3/8
[8]
  Hits (Freq > 0.002%) InA: 2/13
[9]
  Hits (Freq > 0.002%) R: 1/12

## CSCPTVQASK
[2]
  Hits (Freq > 0.002%) InA: 2/13

## GILPRSSVGPR
[10]
  Hits (Freq > 0.002%) IA: 1/12
[1]
  Hits (Freq > 0.002%) InA: 3/13

## GSCIQSQLRK
[11]
  Hits (Freq > 0.002%) IT: 1/8

## GSTHVSWPK
[6]
  Hits (Freq > 0.002%) IA: 1/12
[7]
  Hits (Freq > 0.002%) IT: 1/8

## GTLPQEHIVLK
[9]
  Hits (Freq > 0.002%) R: 1/12

## GTSGSPIVNR
[5]
  Hits (Freq > 0.002%) IA: 4/12
[3]
  Hits (Freq > 0.002%) IT: 5/8
[2]
  Hits (Freq > 0.002%) InA: 4/13
[4]
  Hits (Freq > 0.002%) R: 4/12

## GVWIRTPPAYR
[2]
  Hits (Freq > 0.002%) InA: 1/13

## HTLWKAGILYK
[12]
  Hits (Freq > 0.002%) R: 2/12
[10]
  Hits (Freq > 0.002%) IA: 4/12
[11]
  Hits (Freq > 0.002%) IT: 1/8
[1]
  Hits (Freq > 0.002%) InA: 1/13

## IVQKIKMCFRK
[6]
  Hits (Freq > 0.002%) IA: 1/12
[7]
  Hits (Freq > 0.002%) IT: 1/8
[9]
  Hits (Freq > 0.002%) R: 2/12

## KIKMCFRK
[7]
  Hits (Freq > 0.002%) IT: 2/8
[9]
  Hits (Freq > 0.002%) R: 1/12

## KLVGINMSKK
[2]
  Hits (Freq > 0.002%) InA: 1/13

## KSGAIKVLK
[2]
  Hits (Freq > 0.002%) InA: 1/13

## KTAYSHLSTSK
[12]
  Hits (Freq > 0.002%) R: 7/12
[11]
  Hits (Freq > 0.002%) IT: 8/8

## KTFDSEYVK
[4]
  Hits (Freq > 0.002%) R: 1/12

## KTFVDLMRR
[5]
  Hits (Freq > 0.002%) IA: 1/12

## KTYGRKLHLY
[7]
  Hits (Freq > 0.002%) IT: 1/8
Immune Tolerant (IT) patients, mean frequency of antigen-specific CD8+ T cells among hits
  Average of hits (%) IT: 0.002007%

## KVFVLGGCRHK
[5]
  Hits (Freq > 0.002%) IA: 1/12
[3]
  Hits (Freq > 0.002%) IT: 1/8
[4]
  Hits (Freq > 0.002%) R: 2/12

## LLYKTFGRK
[6]
  Hits (Freq > 0.002%) IA: 5/12
[7]
  Hits (Freq > 0.002%) IT: 4/8
[8]
  Hits (Freq > 0.002%) InA: 5/13
[9]
  Hits (Freq > 0.002%) R: 1/12

## LQAGFFLLTK
[10]
  Hits (Freq > 0.002%) IA: 1/12

## LSLGIHLNPNK
[6]
  Hits (Freq > 0.002%) IA: 3/12
[8]
  Hits (Freq > 0.002%) InA: 1/13

## LSYLHFRK
[12]
  Hits (Freq > 0.002%) R: 2/12
[10]
  Hits (Freq > 0.002%) IA: 4/12
[11]
  Hits (Freq > 0.002%) IT: 3/8
[1]
  Hits (Freq > 0.002%) InA: 1/13

## LTFGRETVLE
[2]
  Hits (Freq > 0.002%) InA: 1/13
[4]
  Hits (Freq > 0.002%) R: 1/12

## LTINENRRLK
[10]
  Hits (Freq > 0.002%) IA: 1/12

## LVFQTSER
[12]
  Hits (Freq > 0.002%) R: 1/12
[1]
  Hits (Freq > 0.002%) InA: 1/13

## LVVDFSQFSR
[6]
  Hits (Freq > 0.002%) IA: 9/12
[7]
  Hits (Freq > 0.002%) IT: 5/8
[8]
  Hits (Freq > 0.002%) InA: 9/13
[9]
  Hits (Freq > 0.002%) R: 9/12

## LVYRPTTGR
[6]
  Hits (Freq > 0.002%) IA: 1/12
[8]
  Hits (Freq > 0.002%) InA: 1/13

## MATYGWNLVK
[5]
  Hits (Freq > 0.002%) IA: 1/12
[2]
  Hits (Freq > 0.002%) InA: 1/13

## MLLYKTYGRK
[8]
  Hits (Freq > 0.002%) InA: 1/13

## MSMTDLEAYFK
[5]
  Hits (Freq > 0.002%) IA: 1/12
[4]
  Hits (Freq > 0.002%) R: 1/12

## MVSRLLLNR
[5]
  Hits (Freq > 0.002%) IA: 1/12

## NLNVSIPWTHK
[12]
  Hits (Freq > 0.002%) R: 1/12
[10]
  Hits (Freq > 0.002%) IA: 8/12
[11]
  Hits (Freq > 0.002%) IT: 4/8
[1]
  Hits (Freq > 0.002%) InA: 3/13

## PSFPHIHLK
[12]
  Hits (Freq > 0.002%) R: 1/12
[11]
  Hits (Freq > 0.002%) IT: 1/8

## PTYKAFLSK
[6]
  Hits (Freq > 0.002%) IA: 2/12
[7]
  Hits (Freq > 0.002%) IT: 1/8
[8]
  Hits (Freq > 0.002%) InA: 2/13
[9]
  Hits (Freq > 0.002%) R: 1/12

## QQGSMASGK
[1]
  Hits (Freq > 0.002%) InA: 1/13

## QSSGILSR
[12]
  Hits (Freq > 0.002%) R: 1/12

## QTSERHGDK
[12]
  Hits (Freq > 0.002%) R: 1/12
[1]
  Hits (Freq > 0.002%) InA: 1/13

## QVLPKVLHK
[6]
  Hits (Freq > 0.002%) IA: 1/12

## RGNTRVSWPK
[6]
  Hits (Freq > 0.002%) IA: 2/12
[7]
  Hits (Freq > 0.002%) IT: 1/8
[8]
  Hits (Freq > 0.002%) InA: 1/13
[9]
  Hits (Freq > 0.002%) R: 1/12

## RIINNQHR
[6]
  Hits (Freq > 0.002%) IA: 1/12
[9]
  Hits (Freq > 0.002%) R: 1/12

## RSQSPRRRRSK
[3]
  Hits (Freq > 0.002%) IT: 8/8
[2]
  Hits (Freq > 0.002%) InA: 6/13
[4]
  Hits (Freq > 0.002%) R: 6/12

## RTQSPRRRR
[5]
  Hits (Freq > 0.002%) IA: 6/12
[3]
  Hits (Freq > 0.002%) IT: 1/8
[2]
  Hits (Freq > 0.002%) InA: 5/13
[4]
  Hits (Freq > 0.002%) R: 2/12

## RTTWSIHAK
[5]
  Hits (Freq > 0.002%) IA: 5/12
[3]
  Hits (Freq > 0.002%) IT: 2/8
[2]
  Hits (Freq > 0.002%) InA: 3/13
[4]
  Hits (Freq > 0.002%) R: 3/12

## RVTGGVFLVDK
[6]
  Hits (Freq > 0.002%) IA: 1/12

## SFSFGGFTFK
[5]
  Hits (Freq > 0.002%) IA: 2/12
[2]
  Hits (Freq > 0.002%) InA: 2/13
[4]
  Hits (Freq > 0.002%) R: 1/12

## SQIGAGVYK
[5]
  Hits (Freq > 0.002%) IA: 3/12
[3]
  Hits (Freq > 0.002%) IT: 1/8
[2]
  Hits (Freq > 0.002%) InA: 2/13
[4]
  Hits (Freq > 0.002%) R: 1/12

## SSAGPCALR
[8]
  Hits (Freq > 0.002%) InA: 2/13

## SSARSQSER
[8]
  Hits (Freq > 0.002%) InA: 1/13

## SSCLHQPAVRK
[1]
  Hits (Freq > 0.002%) InA: 1/12

## SSCSSCPLSK
[3]
  Hits (Freq > 0.002%) IT: 6/8
[4]
  Hits (Freq > 0.002%) R: 8/12

## STFHQALLDPR
[10]
  Hits (Freq > 0.002%) IA: 1/12

## STISSILSK
[10]
  Hits (Freq > 0.002%) IA: 1/12
[1]
  Hits (Freq > 0.002%) InA: 1/13

## STLPETAVVRR
[6]
  Hits (Freq > 0.002%) IA: 4/12
[8]
  Hits (Freq > 0.002%) InA: 7/13
[9]
  Hits (Freq > 0.002%) R: 9/12

## STNRQSGRK
[12]
  Hits (Freq > 0.002%) R: 1/12
[10]
  Hits (Freq > 0.002%) IA: 7/12
[11]
  Hits (Freq > 0.002%) IT: 5/8
[1]
  Hits (Freq > 0.002%) InA: 4/13

## STQVSWPK
[7]
  Hits (Freq > 0.002%) IT: 2/8
[9]
  Hits (Freq > 0.002%) R: 1/12

## STVPCFNPK
[12]
  Hits (Freq > 0.002%) R: 1/12

## SVLGPISGHVLK
[2]
  Hits (Freq > 0.002%) InA: 2/13

## SVQPTFSVQR
[5]
  Hits (Freq > 0.002%) IA: 3/12
[3]
  Hits (Freq > 0.002%) IT: 2/8
[2]
  Hits (Freq > 0.002%) InA: 4/13
[4]
  Hits (Freq > 0.002%) R: 1/12

## SVQRNLPFER
[5]
  Hits (Freq > 0.002%) IA: 4/12
[3]
  Hits (Freq > 0.002%) IT: 4/8
[2]
  Hits (Freq > 0.002%) InA: 6/13
[4]
  Hits (Freq > 0.002%) R: 3/12

## SVVRRAFPH
[6]
  Hits (Freq > 0.002%) IA: 3/12
[7]
  Hits (Freq > 0.002%) IT: 1/8
[8]
  Hits (Freq > 0.002%) InA: 2/13

## TSGSPIIDK
[3]
  Hits (Freq > 0.002%) IT: 1/8

## TSMFPSCCCTK
[10]
  Hits (Freq > 0.002%) IA: 2/12
[11]
  Hits (Freq > 0.002%) IT: 1/8
[1]
  Hits (Freq > 0.002%) InA: 1/13

## TTDLEAYFK
[5]
  Hits (Freq > 0.002%) IA: 1/12
[2]
  Hits (Freq > 0.002%) InA: 3/13
[4]
  Hits (Freq > 0.002%) R: 1/12

## TTKRDLGMSK
[5]
  Hits (Freq > 0.002%) IA: 2/12
[3]
  Hits (Freq > 0.002%) IT: 1/8

## TTSTGPCK
[12]
  Hits (Freq > 0.002%) R: 1/12
[10]
  Hits (Freq > 0.002%) IA: 1/12

## TVMDIISRR
[3]
  Hits (Freq > 0.002%) IT: 2/8

## TVNAHQVLPK
[6]
  Hits (Freq > 0.002%) IA: 3/13
[7]
  Hits (Freq > 0.002%) IT: 1/12
[9]
  Hits (Freq > 0.002%) R: 2/12

## TVNETRRLK
[10]
  Hits (Freq > 0.002%) IA: 2/12
[11]
  Hits (Freq > 0.002%) IT: 1/8
[1]
  Hits (Freq > 0.002%) InA: 2/13

From patent publication US12414990B2, “Use of HLA-A*11:01-restricted hepatitis B virus (HBV) peptides for identifying HBV-specific CD8+ T cells” (AGENCY FOR SCIENCE, TECHNOLOGY AND RESEARCH, priority 2019, dated 2025)
